# Legend:
# Type in all cases: in vivo
# corn [1] = experiment: Example 13, Procedure II: Herbicide No. 1 + acetochlor (No. 6) with dichloroacetamide antidotes
# Method: (§1) Containers were filled and compacted with a fumigated silt loam top soil to a depth of about 1.3 cm from the top of the container. A first container was designated as an untreated control, a second container was designated as a herbicide control, and a third container was designated as a herbicide + antidote test container. Each of the containers was seeded with a crop species. A measured amount of herbicide dispersed or dissolved in acetone was applied to a measured quantity of soil. To this same quantity of soil treated with herbicide, there was added a measured amount of antidote dispersed or dissolved in acetone. The quantity of soil treated with the herbicide and antidote was thoroughly mixed to incorporate the herbicide and antidote in the soil uniformly. The seed bed in the third container of soil was covered with the soil treated with the herbicide and antidote and the container was leveled. For each test series, the seed beds of the first and second containers were likewise covered by soil layers. the cover layer of the first container was not treated with herbicide or antidote.
# (§2) The containers were then placed on a bench in a greenhouse and sub-irrigated as required for the duration of the test. […] Plant response is measured in terms of percent injury. Antidote efficacy is indicated as the difference in plant injury by the herbicide(s) without the antidote and with the antidote.
# (§3) This procedure is the same as Procedure I, but modified in the manner that after incorporation of the chemicals (herbicide and antidote) the containers with the covered seedbed were treated with an initial overhead irrigation equivalent to 0.6 cm rainfall, then subsequently sub-irrigated as required on greenhouse benches.
# In this example a plurality of dichloroacetamide antidotes were tested for their safening efficacy against a herbicidal composition comprising Herbicide No. 1 and a co-herbicide, acetochlor (Herbicide No. 6) in corn in the presence of velvetleaf. The procedure used in this example was Procedure II above.
# corn [2] = experiment: Example 10, Procedure II: Herbicide No. 1 + propachlor (No. 5) with antidotes
# Method: as §1, §2, §3
# In this test, the safening effect of various antidotes on the herbicidal combination of Herbicide No. 1 and another α-chloroacetanilide co-herbicide, propachlor, (Herbicide No. 5) was investigated. Propachlor is the active ingredient in the commercial herbicide RAMROD®. Procedure II was also used in this test as in the preceding example.
# corn [3] = experiment: Example 15, Procedure II: Herbicide No. 1 + butylate (No. 10) with antidotes
# Method: as §1, §2, §3
# This example describes experiments designed to investigate the antidotal efficacy of a plurality of antidotes against the herbicidal action of a combination of Herbicide No. 1 and butylate in corn and the prevalent weeds barnyardgrass and velvetleaf. The antidotes used in these experiments were Nos. 1-10, 12, 13 and 15.
# The test procedure used in these experiments was that of Procedure II described above. The antidotes were applied to a soil cover layer by pipet after spraying the herbicides onto the soil, followed by incorporation and overhead irrigation.
# corn [4] = experiment: Example 11, Procedure II: Herbicide No. 1 + metazachlor (No. 14) with antidotes
# Method: as §1, §2, §3
# In this example, yet another α-chloroacetanilide co-herbicide, metazachlor (Herbicide No. 14) was combined with Herbicide No. 1 for investigation of the effect of various safeners on that composition. Metazachlor is the active ingredient in the commercial herbicide BUTISAN® S, used here as a 500 g/L formulation.
# corn [5] = experiment: Example 2, Procedure II: dichloroacetamide antidotes against Herbicide No. 1
# Method: as §1, §2, §3
# In this example, a plurality of dichloroacetamide antidotes were tested for their safening efficacy against Herbicide No. 1 in corn, using Procedure II. In this test the weed was velvetleaf; barnyardgrass was not present in this test.
# corn [6] = experiment: Example 5, Procedure I: Herbicide No. 1 + alachlor (No. 7) with Antidote Nos. 15 and 16; conditions: for % Injury Corn: no antidote
# Method: as §1, §2
# This example describes tests with Antidote Nos. 15 and 16 to safen Herbicide No. 1 according to Procedure I using corn and the weeds barnyardgrass and velvetleaf as the test plants.
# In the tests described in this example, the same procedure described in Example 4 was performed simultaneously therewith and under the same conditions, except that a co-herbicide, alachlor, was included in the same composition with Herbicide No. 1 and Antidote Nos. 15 and 16. Alachlor (Herbicide No. 7 herein) is the active ingredient in the commercial product LASSO® herbicide.
# corn [7] = experiment: Example 3, Procedure I: antidotes against Herbicide No. 1; conditions: for % Injury Corn: no antidote
# Method: as §1, §2
# This example details the results of tests with Antidote Nos. 12, 15 and 16 to safen Herbicide No. 1 over application rates ranging from 4.48 kg/ha down to 0.56 kg/ha, in corn in the presence of barnyardgrass. Procedure I described above was used in these tests.
# [8] = Herbicide No.1 0.14 kg/ha + Herbicide No.5 4.48 kg/ha, antidote rate 2.24 kg/ha
# [9] = Herbicide No.1 0.14 kg/ha + Herbicide No.5 4.48 kg/ha, antidote rate 8.96 kg/ha
# [10] = Herbicide No.1 0.56 kg/ha + Herbicide No.5 4.48 kg/ha, antidote rate 2.24 kg/ha
# [11] = Herbicide No.1 0.56 kg/ha + Herbicide No.5 4.48 kg/ha, antidote rate 8.96 kg/ha
# [12] = Herbicide No.1 0.56 kg/ha + Herbicide No.10 6.72 kg/ha, antidote rate 2.24 kg/ha
# [13] = Herbicide No.1 0.56 kg/ha + Herbicide No.10 6.72 kg/ha, antidote rate 8.96 kg/ha
# [14] = Herbicide No.1 1.12 kg/ha + Herbicide No.10 6.72 kg/ha, antidote rate 2.24 kg/ha
# [15] = Herbicide No.1 1.12 kg/ha + Herbicide No.10 6.72 kg/ha, antidote rate 8.96 kg/ha
# [16] = Herbicide No.1 0.56 kg/ha + Herbicide No.14 3.36 kg/ha, antidote rate 2.24 kg/ha
# [17] = Herbicide No.1 0.56 kg/ha + Herbicide No.14 3.36 kg/ha, antidote rate 8.96 kg/ha
# [18] = Herbicide No.1 1.12 kg/ha + Herbicide No.14 3.36 kg/ha, antidote rate 2.24 kg/ha
# [19] = Herbicide No.1 1.12 kg/ha + Herbicide No.14 3.36 kg/ha, antidote rate 8.96 kg/ha
# [20] = Herbicide No.1 0.14 kg/ha alone, no antidote
# [21] = Herbicide No.1 0.56 kg/ha alone, no antidote
# [22] = Herbicide No.1 1.12 kg/ha alone, no antidote
structure (smiles),measurement,setting,value
C=CCN(CC=C)C(=O)C(Cl)Cl [compound 1],% Injury Corn,"corn [1]; Herbicide No.1 0.56 kg/ha + Herbicide No.6 4.48 kg/ha, antidote rate 0.56 kg/ha",5%
same,% Injury Corn,"corn [1]; Herbicide No.1 0.56 kg/ha + Herbicide No.6 4.48 kg/ha, antidote rate 2.24 kg/ha",10%
same,% Injury Corn,"corn [1]; Herbicide No.6 4.48 kg/ha, no Herbicide No.1, antidote rate 0.56 kg/ha",20%
same,% Injury Corn,"corn [1]; Herbicide No.6 4.48 kg/ha, no Herbicide No.1, antidote rate 2.24 kg/ha",10%
same,% Injury Corn,corn [2]; [8],10%
same,% Injury Corn,corn [2]; [9],0%
same,% Injury Corn,corn [2]; [10],15%
same,% Injury Corn,corn [2]; [11],0%
same,% Injury Corn,corn [3]; [12],15%
same,% Injury Corn,corn [3]; [13],10%
same,% Injury Corn,corn [3]; [14],20%
same,% Injury Corn,corn [3]; [15],30%
same,% Injury Corn,corn [4]; [16],25%
same,% Injury Corn,corn [4]; [17],50%
same,% Injury Corn,corn [4]; [18],45%
same,% Injury Corn,corn [4]; [19],50%
COC(=O)c1c(Cl)nn(C)c1S(=O)(=O)NC(=O)Nc1nc(OC)cc(OC)n1 [Herbicide No. 1],% Injury Corn,corn [1]; [20],10%
same,% Injury Corn,corn [1]; [21],55%
same,% Injury Corn,"corn [1]; Herbicide No.1 2.24 kg/ha alone, no antidote",80%
same,% Injury Corn,corn [2]; [20],20%
same,% Injury Corn,corn [2]; [21],30%
same,% Injury Corn,"corn [5]; Herb. No. 1 0.14 kg/ha, no antidote",10%
same,% Injury Corn,corn [3]; [21],20%
same,% Injury Corn,corn [3]; [22],20%
same,% Injury Corn,corn [6]; Herbicide No.1 4.48 + No.7 0.56 kg/ha,95%
same,% Injury Corn,corn [6]; Herbicide No.1 4.48 + No.7 2.24 kg/ha,95%
same,% Injury Corn,corn [6]; Herbicide No.1 6.72 + No.7 0.56 kg/ha,93%
same,% Injury Corn,corn [6]; Herbicide No.1 6.72 + No.7 (alachlor) 2.24 kg/ha,95%
same,% Injury Corn,corn [4]; [21],65%
same,% Injury Corn,corn [4]; [22],65%
same,% Injury Corn,corn [7]; Herb. No. 1 0.56 kg/ha,7%
same,% Injury Corn,corn [7]; Herb. No. 1 1.12 kg/ha,13%
same,% Injury Corn,corn [7]; Herb. No. 1 2.24 kg/ha,38%
same,% Injury Corn,corn [7]; Herb. No. 1 4.48 kg/ha,60%
CC1(C(Cl)Cl)OCCO1 [compound 13],% Injury Corn,corn [2]; [8],0%
same,% Injury Corn,corn [2]; [9],15%
same,% Injury Corn,corn [2]; [10],45%
same,% Injury Corn,corn [2]; [11],10%
same,% Injury Corn,corn [3]; [12],10%
same,% Injury Corn,corn [3]; [13],15%
same,% Injury Corn,corn [3]; [14],20%
same,% Injury Corn,corn [3]; [15],0%
same,% Injury Corn,corn [4]; [16],75%
same,% Injury Corn,corn [4]; [17],40%
same,% Injury Corn,corn [4]; [18],60%
same,% Injury Corn,corn [4]; [19],70%
"CC1(C)OC(c2ccco2)CN1C(=O)C(Cl)Cl (stereo not shown) [Antidote No. 15, Oxazolidine, 3-(dichloroacetyl)-5-(2-furanyl)-2,2-dimethyl]","safening of corn, assessment in words","corn [1]; Herbicide Nos. 1 and 6, Table 13",most active overall
same,"safening of corn, assessment in words","corn [2]; Herbicide Nos. 1 and 5, Table 10",best safening effect
same,"safening of corn, assessment in words","corn [5]; Herbicide No. 1, Table 2","most safening and commercial-level protection for corn, at all ratios tested"
same,"safening of corn, assessment in words","corn [6]; Herbicide Nos. 1 and 7, Table 5",substantial safening of corn
same,"safening of corn, assessment in words","corn [4]; Herbicides 1 and 14, Table 11",outperformed the antidotes (2 and 13) of other chemistries
same,"safening of corn, assessment in words","corn [7]; Herbicide No. 1, Table 3",excellent protection for corn

# From EP0603240B1, “SAFENING HERBICIDAL PYRAZOLYLSULFONYLUREAS” (priority 1991, dated 1993)
